# System: plants
# Experiment: Test D pre-emergence, other plants of Tables D1 and D3
# Format: in vivo
# Conditions: for damage to plant (100=total damage to plant; 0=no damage to plant), SORVU: preemergent, 20 DAA; for damage to plant, ALOMY / damage to plant, AVEFA / damage to plant, BEAVA / damage to plant, BROTE / damage to plant, BRSNN / damage to plant, CHEAL / damage to plant, GALAP / damage to plant, HORVW / damage to plant, KCHSC / damage to plant, LOLPE / damage to plant, POAAN / damage to plant, POLCO / damage to plant, SINAR / damage to plant, STEME / damage to plant, VERPE: pre-emergence, 100=total damage, 0=no damage
# Summary of the method: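 Damage was rated visually from 0 (none) to 100 (total), at 20 DAA for pre-emergence and 15 d for post-emergence. Plants grew from safener-treated seed in a glasshouse at 24/18° C. or 20/16° C. day/night, 65% humidity, watered twice daily.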
compound,measurement,setting,value
CCn1nc([C@H]2CN(C)C(=O)[C@@H]2C(=O)Nc2cccc(F)c2F)c2c(F)cccc21 [Compound 7],"damage to plant (100=total damage to plant; 0=no damage to plant), SORVU",rate 130,20
same,"damage to plant (100=total damage to plant; 0=no damage to plant), SORVU",rate 250,70
same,"damage to plant (100=total damage to plant; 0=no damage to plant), SORVU",rate 500,80
same,"damage to plant, ALOMY","rate 15, 20 DAA",0
same,"damage to plant, AVEFA","rate 15, 20 DAA",0
same,"damage to plant, BEAVA","rate 15, 20 DAA",0
same,"damage to plant, BROTE","rate 15, 20 DAA",0
same,"damage to plant, BRSNN","rate 15, 20 DAA",0
same,"damage to plant, CHEAL","rate 15, 20 DAA",0
same,"damage to plant, GALAP","rate 15, 20 DAA",0
same,"damage to plant, HORVW","rate 15, 20 DAA",0
same,"damage to plant, KCHSC","rate 15, 20 DAA",0
same,"damage to plant, LOLPE","rate 15, 20 DAA",0
same,"damage to plant, POAAN","rate 15, 20 DAA",0
same,"damage to plant, POLCO","rate 15, 20 DAA",0
same,"damage to plant, SINAR","rate 15, 20 DAA",0
same,"damage to plant, STEME","rate 15, 20 DAA",0
same,"damage to plant, VERPE","rate 15, 20 DAA",0
same,"damage to plant, ALOMY","rate 30, 20 DAA",0
same,"damage to plant, AVEFA","rate 30, 20 DAA",0
same,"damage to plant, BEAVA","rate 30, 20 DAA",0
same,"damage to plant, BROTE","rate 30, 20 DAA",0
same,"damage to plant, BRSNN","rate 30, 20 DAA",0
same,"damage to plant, CHEAL","rate 30, 20 DAA",0
same,"damage to plant, GALAP","rate 30, 20 DAA",0
same,"damage to plant, HORVW","rate 30, 20 DAA",0
same,"damage to plant, KCHSC","rate 30, 20 DAA",0
same,"damage to plant, LOLPE","rate 30, 20 DAA",0
same,"damage to plant, POAAN","rate 30, 20 DAA",0
same,"damage to plant, POLCO","rate 30, 20 DAA",0
same,"damage to plant, SINAR","rate 30, 20 DAA",0
same,"damage to plant, STEME","rate 30, 20 DAA",0
same,"damage to plant, VERPE","rate 30, 20 DAA",0
same,"damage to plant, ALOMY","rate 60, 20 DAA",0
same,"damage to plant, AVEFA","rate 60, 20 DAA",0
same,"damage to plant, BEAVA","rate 60, 20 DAA",0
same,"damage to plant, BROTE","rate 60, 20 DAA",0
same,"damage to plant, BRSNN","rate 60, 20 DAA",0
same,"damage to plant, CHEAL","rate 60, 20 DAA",0
same,"damage to plant, GALAP","rate 60, 20 DAA",0
same,"damage to plant, HORVW","rate 60, 20 DAA",0
same,"damage to plant, KCHSC","rate 60, 20 DAA",0
same,"damage to plant, LOLPE","rate 60, 20 DAA",0
same,"damage to plant, POAAN","rate 60, 20 DAA",0
same,"damage to plant, POLCO","rate 60, 20 DAA",0
same,"damage to plant, SINAR","rate 60, 20 DAA",0
same,"damage to plant, STEME","rate 60, 20 DAA",0
same,"damage to plant, VERPE","rate 60, 20 DAA",0
same,"damage to plant, ALOMY","rate 130, 20 DAA",0
same,"damage to plant, AVEFA","rate 130, 20 DAA",10
same,"damage to plant, BEAVA","rate 130, 20 DAA",0
same,"damage to plant, BROTE","rate 130, 20 DAA",0
same,"damage to plant, BRSNN","rate 130, 20 DAA",0
same,"damage to plant, CHEAL","rate 130, 20 DAA",0
same,"damage to plant, GALAP","rate 130, 20 DAA",0
same,"damage to plant, HORVW","rate 130, 20 DAA",0
same,"damage to plant, KCHSC","rate 130, 20 DAA",0
same,"damage to plant, LOLPE","rate 130, 20 DAA",0
same,"damage to plant, POAAN","rate 130, 20 DAA",0
same,"damage to plant, POLCO","rate 130, 20 DAA",0
same,"damage to plant, SINAR","rate 130, 20 DAA",0
same,"damage to plant, STEME","rate 130, 20 DAA",0
same,"damage to plant, VERPE","rate 130, 20 DAA",0
same,"damage to plant, ALOMY","rate 250, 20 DAA",0
same,"damage to plant, AVEFA","rate 250, 20 DAA",20
same,"damage to plant, BEAVA","rate 250, 20 DAA",0
same,"damage to plant, BROTE","rate 250, 20 DAA",0
same,"damage to plant, BRSNN","rate 250, 20 DAA",0
same,"damage to plant, CHEAL","rate 250, 20 DAA",0
same,"damage to plant, GALAP","rate 250, 20 DAA",0
same,"damage to plant, HORVW","rate 250, 20 DAA",0
same,"damage to plant, KCHSC","rate 250, 20 DAA",0
same,"damage to plant, LOLPE","rate 250, 20 DAA",0
same,"damage to plant, POAAN","rate 250, 20 DAA",0
same,"damage to plant, POLCO","rate 250, 20 DAA",0
same,"damage to plant, SINAR","rate 250, 20 DAA",0
same,"damage to plant, STEME","rate 250, 20 DAA",0
same,"damage to plant, VERPE","rate 250, 20 DAA",0
same,"damage to plant, ALOMY","rate 500, 20 DAA",0
same,"damage to plant, AVEFA","rate 500, 20 DAA",50
same,"damage to plant, BEAVA","rate 500, 20 DAA",0
same,"damage to plant, BROTE","rate 500, 20 DAA",0
same,"damage to plant, BRSNN","rate 500, 20 DAA",0
same,"damage to plant, CHEAL","rate 500, 20 DAA",0
same,"damage to plant, GALAP","rate 500, 20 DAA",0
same,"damage to plant, HORVW","rate 500, 20 DAA",0
same,"damage to plant, KCHSC","rate 500, 20 DAA",0
same,"damage to plant, LOLPE","rate 500, 20 DAA",0
same,"damage to plant, POAAN","rate 500, 20 DAA",0
same,"damage to plant, POLCO","rate 500, 20 DAA",0
same,"damage to plant, SINAR","rate 500, 20 DAA",0
same,"damage to plant, STEME","rate 500, 20 DAA",0
same,"damage to plant, VERPE","rate 500, 20 DAA",0

# Source: patent US20220281848A1, “PYRAZOLE-SUBSTITUTED PYRROLIDINONES AS HERBICIDES” (FMC Corporation, priority 2019, published 2022)
